Results as given in US20250235454A1, “XOPHOS INHIBITORS FOR USE IN THE TREATMENT OF B-CELL LYMPHOMA” (CENTRE NATIONAL DE LA RECHERCHE SCIENTIFIQUE, priority 2022, published 2025).

Experiments:
[1] = test system: RD136, CVCL_1649 rhabdomyosarcoma-like sarcoma line; test: Effect on cell growth, paediatric sarcoma line RD136 (CellTiterFluor); format: cell-based, human; settings: 10 μM, 48 h, HLPM medium, FIG. 5a
Protocol: (§1) Human tumour cells from two paediatric rhabdomyosarcoma-like sarcoma lines (“RD136, CVCL_1649”, FIG. 5a and “RH3O, CVCL_0041”, FIG. 5b) have been seeded in a 96-well plate in the presence of a concentration of 10 μM of compound, in a volume of 100 μL of “Gibco Human Like Plasma Medium” (Gibco HPLM_Thermo Fisher Scientific). The effect of compounds (Ia), (Ib) and (Ic) has been compared with that of the inhibitors IACS-010759 (IACS) and IM156 (metformin analogue) currently in clinical trials, Rotenone (ROT) and the apoptosis inducer staurosporine (STS). After 48 hours of treatment, the effect on the number of living cells has been evaluated using the “CellTiterFluor” kit from Promega, identically to FIG. 2b.

[2] = test system: human B cell lymphoma line (RL line, CVCL_1660); test: Seahorse analysis of oxygen consumption rate (OCR); format: cell-based; settings: for inhibition of OCR: RL cells; for effect on mitochondrial respiration: increasing concentrations 1.2-10 μM, compared to rotenone or IACS-010759
Protocol: The analyser known as “Seahorse” allows evaluation mitochondrial respiration in real time by measuring Oxygen Consumption Rate (OCR). The experiments have been carried out according to the supplier's recommendations (“Agilent_Seahorse XFe96”). To achieve this, 150,000 cells per well of a human B cell lymphoma line (“RL line, CVCL_1660”) have been seeded in 180 μL of Agilent_Seahorse XF RPMI medium (supplemented with pyruvate and glucose) on a dedicated Agilent_Seahorse 96-well plate, pre-treated with a solution of CellTak according to the supplier's recommendations (Corning). After 30 min incubation in a CO2-free oven, the plate has been analysed with the “Seahorse” using a protocol allowing injection (indicated by arrows in FIG. 1) of increasing amounts of compound to obtain a final cumulative concentration of 1.2 μM, 2.5 μM, 5 μM and 10 μM, followed each time by an OCR reading (in pmol/min) for 10 min. Data normalisation has been carried out by cell counting, using a device known as the “Cytation 1/5 Cell Imaging Multi-Mode reader” (BioTek Instruments, Inc) coupled to the “Seahorse”.
A control is used (DMSO, curve with solid squares) in each figure and corresponds to the medium studied without addition of compound (addition only of the DMSO diluent from the molecule stocks). […] In addition, injection of increasing concentrations of compounds in accordance with the invention induces progressive inhibition of OCR, in a similar manner and in stages for compounds (Ib) and (Ic), and progressively for compound (Ia).

[3] = test system: human B cell lymphoma cell line (Karpas422, CVCL_1325); test: Effect on cell growth, B cell lymphoma line Karpas422 (live cell count by flow cytometry or CellTiterFluor); format: cell-based; settings: 10 μM, 48 h, RPMI and HLPM medium, FIG. 2
Protocol: Cells from a human B cell lymphoma cell line (“Karpas422, CVCL_1325”) have been seeded at a density of 100,000 cells per well, in a 96-well plate in the presence of a 10 μM concentration of compound, in a volume of 100 μL of medium. After 48 h of treatment, analyses of the effect on cell growth have been conducted, either by counting live cells using flow cytometry (FIG. 2a), or using a biochemical fluorescence detection kit for live cells (FIG. 2b).
In conventional “Gibco RPMI1640/10°/0 SVF” medium, the number of living cells has been determined after double AnnexinV/PI labelling, and analysis using the flow cytometer known as “ATTUNE” (Thermo Fisher Scientific). In “Gibco Human Like Plasma Medium”, the number of live cells has been evaluated using the “CellTiterFluor” kit and after measurement of relative fluorescence units (RFU) according to the supplier's recommendations (Promega). The term DMSO in FIG. 2 corresponds to the control, i.e. identical medium with no added compound.

[4] = test system: RH30, CVCL_0041 rhabdomyosarcoma sarcoma line; test: Effect on cell growth, paediatric sarcoma line RH30 (CellTiterFluor); format: cell-based, human; settings: 48 h, HLPM medium
Protocol: as §1
Human tumour cells from the paediatric rhabdomyosarcoma sarcoma line (“RH30, CVCL_0041”) have been seeded in a 96-well plate in the presence of a 10 μM or 25 μM concentration of compound, in a 100 μL volume of “Gibco Human Like Plasma Medium” (Gibco HPLM_Thermo Fisher Scientific). After 48 h of treatment, the effect of compounds (Ia), (Ie) and (If) on cell growth has been evaluated using the Promega “CellTiterFluor” kit as in FIG. 2b.

[5] = test system: human tumour cells of a B cell lymphoma line (SUDHL-4, CVCL_0539); test: In ovo xenograft model on the chorioallantoic membrane (CAM) of the chicken embryo; format: in vivo
Excerpt: Preclinical evaluation analyses of the anti-tumour efficacy of compound (Ia) have been carried out using the xenograft model on the chorioallantoic membrane (CAM) of the chicken embryo. […] Treatments have been performed on days E11, E13, E15 and E17. At day E18, the upper CAM portions containing tumours have been removed and weighed, and the lower CAM fragments have been used to evaluate the presence of human cells indicative of metastases by RT-gPCR (polymerase chain reaction from an RNA sample). 0.0097 mg/kg Doxorubicin (DOXO) has been used as a positive control for treatment efficacy, compound (Ia) has been used at 3 different doses: 0.05 mg/kg, [2]: 0.15 mg/kg, and [3]: 0.45 mg/kg, and “IACS-010759” has been used at 2 different doses: 0.05 mg/kg, and [2]: 0.45 mg/kg. The negative control (denoted DMSO) represents treatment with the DMSO molecule diluent.

[6] = test system: human B cell lymphoma cell line (RL, CVCL_1660); test: Effect on cell growth, B cell lymphoma line RL (live cell count by flow cytometry); format: cell-based; settings: 5 μM or 10 μM, 48 h, RPMI medium, FIG. 6
Protocol: Cells from the human B cell lymphoma cell line (“RL, CVCL_1660”), have been seeded at a density of 100,000 cells per well, in a 96-well plate in the presence of a concentration of 5 μM or 10 μM of compound, in a volume of 100 μL of RPMI medium. After 48 h of treatment, analyses of the effect on cell growth have been conducted by counting live cells using flow cytometry, as in FIG. 2a.

[7] = test system: human B cell lymphoma cell line (Karpas422, CVCL_1325); test: IC50 on cell growth, Karpas422 (CellTiter-Fluor Cell Viability Assay); format: cell-based; settings: KARPAS-422, Karpas422, RPMI 1640 (11 mM glucose) with 10% serum, 48 h
Protocol: These experiments have been performed using cells from a human B cell lymphoma cell line (“Karpas422, CVCL_1325”) which have been seeded in “RPMI 1640” medium (11 mM glucose) supplemented with 10% serum, in the presence of increasing concentrations of compounds.
After 48 h of treatment, analyses of the effect on cell growth have been conducted, using the “CellTiter-Fluor Cell Viability Assay” (Promega) live cell detection kit, as in FIG. 2b, and following the supplier's instructions.

[8] = test system: 31 human B and T cell lymphoma lines; test: AnnexinV/PI cytometry, % apoptotic cells in 31 lymphoma lines; format: cell-based; settings: compared with IACS-010759, FIG. 3
Excerpt: Analyses of the effect on cell growth of compound (Ia) in accordance with the invention in comparison with compound “[…]” (denoted IACS) not in accordance with the invention have been conducted on a wide series of 31 human B and T cell lymphoma lines, after AnnexinV/PI labelling and analysis with the “ATTUNE” cytometer (Thermo Fisher Scientific). In addition to the number of living cells represented in FIG. 2a, this technology enables the % of cells undergoing apoptosis to be evaluated. The results have been represented in FIG. 3 in the form of a “HeatMap” with a black and white gradient, black representing the highest % of apoptotic cells.

[9] = 10 μM cumulative concentration, FIG. 1b
[10] = dose 0.15 mg/kg (compound Ia [2])
[11] = dose 0.45 mg/kg (compound Ia [3], IACS [2])

| Compound | effect on cell growth (number of living cells) [1] | inhibition of OCR [2, 9] | effect on mitochondrial respiration [2] | effect on cell growth (number of live tumour cells) [3] | effect on cell growth (number of living cells) ([4]; 10 μM, FIG. 5b) | effect on cell growth (number of living cells) ([4]; 10 μM or 25 μM, FIG. 7) | also measured |
| --- | --- | --- | --- | --- | --- | --- | --- |
| Cl.Cl.c1cnc(N2CCN(CCCCCCCCCCCCN3CCN(c4ncccn4)CC3)CC2)nc1 [Compound Ib, 2-[4-[12-(4-pyrimidin-2-ylpiperazin-1-yl)dodecyl]piperazin-1-yl]pyrimidine dihydrochloride] | inhibits cell growth | Virtually complete inhibition of OCR | moderate and progressive effect | inhibit cell growth | inhibits cell growth |  |  |
| c1cnc(N2CCN(CCCCCCCN3CCN(c4ncccn4)CC3)CC2)nc1 [Compound Ie] |  |  |  |  |  | inhibit cell growth |  |
| Cl.Cl.c1ccc(N2CCN(CCCCCCCN3CCN(c4ccccn4)CC3)CC2)nc1 [Compound If] |  |  |  |  |  | inhibit cell growth |  |
| COc1cccc2c1C(=O)c1c(O)c3c(c(O)c1C2=O)C[C@@](O)(C(=O)CO)C[C@@H]3O[C@H]1C[C@H](N)[C@H](O)[C@H](C)O1 [doxorubicin, Doxorubicin, reference compound] |  |  |  |  |  |  | regression in the number of metastases ([5]; 0.0097 mg/kg, lower CAM, RT-qPCR): 99%; reduction in primary tumour volume ([5]; 0.0097 mg/kg, treatments E11, E13, E15, E17, read at E18): 90% |
| c1cnc(NCCCCCCCCCCCCNC2=NCCN2)nc1 [Compound Ia, N′-(4,5-dihydro-1H-imidazol-2-yl)-N-pyrimidin-2-yl-dodecane-1,12-diamine] |  | Virtually complete inhibition of OCR | moderate and progressive effect | inhibit cell growth |  | inhibit cell growth | effect on cell growth [6]: inhibitory effect on cell growth; reduction in primary tumour volume [5, 10]: 73%; reduction in the relative number of metastases [5, 10]: 70%; reduction in primary tumour volume [5, 11]: 70%; reduction in the relative number of metastases [5, 11]: 72%; reduction in primary tumour volume ([5]; dose [1] 0.05 mg/kg): 48%; reduction in the relative number of metastases ([5]; dose [1] 0.05 mg/kg): 45%; IC50 [7]: 1.5 µM; toxicity (% of apoptotic cells) [8]: increased with respect to that of “IACS-010759” for a sub-group of 8 lines |
| C=C(C)[C@H]1Cc2c(ccc3c2O[C@@H]2COc4cc(OC)c(OC)cc4[C@@H]2C3=O)O1 [Rotenone, reference compound] |  |  |  |  |  |  | inhibition of OCR ([2]; 1.2 μM, FIG. 1a): instantaneous and almost complete inhibition of OCR |
| N/C(=N/c1cccc2ccccc12)SCCCCCCS/C(N)=N\c1cccc2ccccc12 [reference compound] |  |  |  |  |  |  | IC50 [7]: 15.1 µM |
| c1cnc(NCCCCCCCCCCCCNc2ncccn2)nc1 [Compound Id] | inhibits cell growth |  |  |  | inhibits cell growth |  | effect on cell growth [6]: inhibitory effect on cell growth |
| Cl.Cl.c1ccc(N2CCN(CCCCCCCCCCCCN3CCN(c4ccccn4)CC3)CC2)nc1 [Compound Ic, 1-(2-pyridyl)-4-[12-[4-(2-pyridyl)piperazin-1-yl]dodecyl]piperazine dihydrochloride] | inhibits cell growth | Virtually complete inhibition of OCR | moderate and progressive effect | inhibit cell growth | inhibits cell growth |  |  |
